The subject of assay [1] is Raw264.7 cells. As to the kind of experiment: TNF-α production in LPS-stimulated macrophages (ELISA). Conditions: LPS 1 ng/mL; for Amount of TNF-α / inhibition at 0.01 µM / inhibition at 0.1 µM / inhibition at 0.5 µM / inhibition at 1 µM: 4 hours; for inhibition at 0.01 µM / inhibition at 0.1 µM / inhibition at 0.5 µM / inhibition at 1 µM: Mus musculus, RAW264.7, 4 h, read-out: Inhibition rate of TNF-α production. It is filed as cell-based, mouse. As for the experimental part:
Raw264.7 cells, which is a mouse macrophage cell line (Korean Cell Line Bank, cultured with RPMI 1640/10% fetal bovine serum) were seeded at 4.5×10^5/mL and cultured overnight, and then, treated with LPS (lipopolysaccharide) (1 ng/mL), and S1P and P1P diluted with a culture medium according to the concentrations ([…]). After culturing at 37° C. in a 5% CO2 incubator for 4 hours, the supernatant was collected and stored at 4° C. The concentration of TNF-α, an inflammatory cytokine secreted in the supernatant, was measured using an ELISA kit (BD OptEIA™ TNF Mouse set) according to the manufacturer's instructions. The culture medium was diluted by ¼ in all experimental groups except for the treated group, and the concentration was measured.
On the technique in general: In an ELISA, binding on a coated surface is turned into a signal by an enzyme label.

The subject of assay [2] is TNF-α. Nature of the assay: Th1 cytokine (TNF-α) from splenocytes of inoculated mice re-stimulated with Aβ antigen. It is filed as in vivo. Conditions: for TNF-α: splenocytes of vaccinated mice, re-stimulated with Aβ antigen 72 hours. As for the experimental part: (§1) The mice were inoculated with the vaccines prepared as described above. 6-week-old Balb/c mice were used in the experiment, and there were 4 mice per group. The mice were injected intramuscularly with the vaccines prepared containing PBS, Alum, S1P (EB101), P1P, cyclic P1P, and NAPS-1-P as described above. […] The vaccine candidates were inoculated twice at an interval of 3 weeks. PBS was used as a negative control without Aβ antigen, and S1P and Alum were used as control. Alum is an adjuvant used in vaccines and is known to induce a Th2 immune response, and thus was used as a positive control for the Th2 response, and S1P was used as a control for comparison of antibody producing-ability.
(§2) The spleen was removed from the mice inoculated as described above to obtain splenocytes. Red blood cells were lysed with 100 mM Tris buffer. The obtained splenocytes were washed twice with PBS and centrifuged at 1600 rpm for 5 minutes. […] The splenocytes thus obtained were re-stimulated with a constant amount of Aβ antigen for 72 hours.
(§3) Subsequently, Th1 cytokine (TNF-α) and Th2 cytokine (IL-4) secreted from the mouse splenocytes were subjected to an ELISpot assay using an ELISPOT (BD Pharmingen) kit according to the manufacturer's instructions. The number of colored spots was measured to compare the number of cytokine-secreting cells.

Assay [3] deals with PC12 cell. Nature of the assay: Protection against neuronal cell death induced by hydrogen peroxide (oxidative stress), Ez-Cytox viability. Conditions: 100 nM, 350 μM hydrogen peroxide (about 90% of nerve cells killed without treatment). Type of assay: cell-based, Mouse. On the procedure: PC12 cell line (KCLB 21721, Korea Cell Line Bank, Seoul, Korea) was used to test the effect of P1P and the antibodies on the neuronal cell death caused by hydrogen peroxide and Aβ. The PC12 cells were cultured in RPMI 1640 medium containing 10% fetal bovine serum and 1% penicillin/streptomycin at 37° C. in a 5% CO2 incubator.
After culturing the cells for 24 hours, P1P, cyclic P1P and NAPS-1-P dissolved in DMSO to a concentration of 2 mM were diluted and added to the medium such that the concentrations were 10 nM, 100 nM and 1000 nM. After culturing for 1 hour, 350 μM of H2O2 was added to […] and cultured. Subsequently, in order to measure cell viability, the absorbance was measured at 450 nm using Ez-Cytox (Dogen) after 6 hours, and the efficacy of P1P and derivatives thereof against oxidative stress was measured. The cell death induced by Aβ was initiated by treating 10 μM of Aβ instead of 350 μM of hydrogen peroxide, and the efficacy of P1P and the antibodies against the cell death induced by Aβ was measured using Ez-Cytox after 24 hours.

In assay [4] the test system is Aβ antigen. Nature of the assay: IgG isotyping (IgG1, IgG2a, IgG2b titer) in vaccinated mice. Type of assay: in vivo, Balb/c mice. Conditions: blood collected at 4th week after the second vaccination. On the procedure: as §1
In the fourth week, which was the last week, about 300 to 400 μl of blood was collected from the heart, and the serum components were separated by centrifugation at 1400 rpm for 10 minutes at room temperature. The antibody-forming ability in the serum was determined as follows:
The IgG isotyping was measured in the same manner as the total IgG measurement except that the following antibodies were used as secondary antibodies. For IgG1, IgG2a and IgG2b, anti-mouse IgG1, IgG2a or IgG2b conjugated to horseradish peroxidase (Boehringer Mannheim) were used.

Assay [5] relates to Aβ antigen. As to the kind of experiment: Antibody-forming ability in vaccinated mice, total IgG titer (ELISA). Type of assay: in vivo, Balb/c mice. Conditions: vaccine with Aβ antigen, intramuscular. On the procedure: as §1
The antibody-forming ability in the serum was determined as follows:
A 96-well plate was coated with Aβ antigen (1 μg/mL) and reacted at room temperature overnight. Then, the solution in each well was removed and blocked with albumin. The primary antibody (the immune serum) was subjected to 2-fold dilution with the following composition solution (0.014 M sodium phosphate, pH 7.4, 0.15 M NaCl, 0.6% albumin, 0.05% thimerosal) and added to each well. After reacting at room temperature for about 1 hour, the antibodies were washed 5 times with PBS containing 0.05% Tween 20. Subsequently, a secondary antibody conjugated to horseradish peroxidase (goat mouse IgG conjugated to horseradish peroxidase, Boehringer Mannheim) was added and reacted at room temperature for 1 hour. After washing 5 times with PBS containing Tween, 100 μL of 3,3,5,5-tetramethyl benzidine (from Pierce Chemicals) was added for color development, and reacted at room temperature for 15 minutes. The color development reaction was terminated by adding sulfuric acid.

The subject of assay [6] is IL-4. As to the kind of experiment: Th2 cytokine (IL-4) from splenocytes of inoculated mice re-stimulated with Aβ antigen. It is filed as in vivo. Conditions: for IL-4: splenocytes of vaccinated mice, re-stimulated with Aβ antigen 72 hours. As for the experimental part:
as §1, §2, §3

Where [7] appears, read: 2 weeks after secondary inoculation.
[8] abbreviates: 3 weeks after primary inoculation.
Where [9] appears, read: 4 weeks after secondary inoculation.

A word on the inhibition: it is the relative decrease from the control value, in per cent. `CCCCCCCCCCCCCC[C@@H](O)[C@H]1OP(=O)(O)OC[C@@H]1N` [CP1P, O-cyclic P1P]: the “Amount of TNF-α” value worked out at 10600 pg/mL in assay [1] (10 nM), 7800 pg/mL in assay [1] (100 nM), 7500 pg/mL in assay [1] (500 nM) and 7550 pg/mL in assay [1] (1000 nM). In addition, in assay [1] (10 nM), the inhibition at 0.01 µM was found to be 26.3%. Also, the inhibition at 0.1 µM in assay [1] (100 nM) stood at 26.3%. In addition, in assay [1] (500 nM), the inhibition at 0.5 µM stood at 47.9%. For the same compound, in assay [1] (1000 nM), the inhibition at 1 µM came out at 47.5%. In assay [2], this compound registered a TNF-α of 42.9 ± 15.52 pg/mL. Also, the “neuronal cell death induced by hydrogen peroxide” value in assay [3] was “the nerve cells were not killed”. Also, the “IgG1 Average Antibody Titer” value in assay [4] was found to be 6100 ± 2100. In assay [4], the “IgG2a Average Antibody Titer” value came to 0. In addition, in assay [4], the “IgG2b Average Antibody Titer” value came out at 0. Moreover, the “Average Antibody Titer” value was determined as 11000 ± 2500 in assay [5] (setting [7]), 140 ± 50 in assay [5] (setting [8]), 9000 ± 2000 in assay [5] (setting [9]) and 0 in assay [5] (Before inoculation). The compound further displayed an IL-4 in assay [6] of 12.06 ± 1.25 pg/mL.
With `CCCCCCCCCCCCCC[C@@H](O)[C@@H](O)[C@H](COP(=O)(O)O)NC(C)=O` [NAPS-1-P, N-acetyl phytosphingosine-1-phosphate], in assay [1] (10 nM), the “Amount of TNF-α” value was found to be 15000 pg/mL and the inhibition at 0.01 µM was -4.2%. In addition, in assay [1] (100 nM), the “Amount of TNF-α” value is 15200 pg/mL and the inhibition at 0.1 µM is -4.2%. Also, in assay [1] (500 nM), the “Amount of TNF-α” value is given as 12200 pg/mL and the inhibition at 0.5 µM was 15.3%. In addition, in assay [1] (1000 nM), the “Amount of TNF-α” value was determined as 10000 pg/mL and the inhibition at 1 µM came out at 30.6%. For the same compound, in assay [2], the TNF-α is 40.4 ± 15.52 pg/mL. Besides, the “neuronal cell death induced by hydrogen peroxide” value in assay [3] is on record as “the nerve cells were not killed”. Further, in assay [4], the “IgG1 Average Antibody Titer” value stood at 1700 ± 600, the “IgG2a Average Antibody Titer” value is listed as 0 and the “IgG2b Average Antibody Titer” value is 0. Further, the “Average Antibody Titer” value in assay [5] (setting [7]) is on record as 5600 ± 2000. For the same compound, the “Average Antibody Titer” value in assay [5] (setting [8]) is given as 84 ± 50. Further, the “Average Antibody Titer” value in assay [5] (setting [9]) was found to be 5600 ± 2000. In assay [6], this compound registered an IL-4 of 11.04 ± 0.78 pg/mL.
As to `CCCCCCCCCCCCC/C=C/[C@@H](O)[C@@H](N)COP(=O)(O)O` [S1P, sphingosine-1-phosphate], the “secretion of TNF-α, trend with concentration” value in assay [1] is “tended to decrease slightly in a concentration-dependent manner”. Also, the “Amount of TNF-α” value in assay [1] (10 nM) was 15000 pg/mL; in assay [1] (100 nM), 13880 pg/mL; in assay [1] (500 nM) it was 12700 pg/mL; in assay [1] (1000 nM) it was 116600 pg/mL. For the same compound, the inhibition at 0.01 µM in assay [1] (10 nM) was -4.2%. Further, in assay [1] (100 nM), the inhibition at 0.1 µM is -4.2%. Further, in assay [1] (500 nM), the inhibition at 0.5 µM was 11.8%. Further, the inhibition at 1 µM in assay [1] (1000 nM) is roughly 19%. Besides, the “increase in TNF-α, statistical significance” value in assay [2] (splenocytes of immunized mice) is given as “did not show a statistically significant increase”. The compound also came in with a TNF-α in assay [2] of 36.25 ± 20.15 pg/mL. The “IgG1 Average Antibody Titer” value in assay [4] is reported as 1200 ± 430. Moreover, in assay [4], the “IgG2a Average Antibody Titer” value was 0. Besides, in assay [4], the “IgG2b Average Antibody Titer” value worked out at 0. Besides, the “Average Antibody Titer” value in assay [5] (setting [7]) came out at 4000 ± 1500; in assay [5] (setting [8]) it was 140 ± 80; in assay [5] (setting [9]) it was 4800 ± 2000; in assay [5] (Before inoculation) it was 0. Besides, in assay [6] (splenocytes of immunized mice), the “increase in IL-4, statistical significance” value is on record as “statistically significant increase”. Besides, in assay [6], the IL-4 came out at 11.84 ± 2.25 pg/mL.

For the origin of these results see patent US11000587B2, “Use as immune enhancer or pharmaceutical composition for treatment of dementia, comprising phytosphingosine-1-phosphate or derivative thereof” (AXCESO BIOPHARMA CO., LTD., priority 2016, dated 2021).
